Data: PubChem BioAssay AID330 (DTP/NCI, 2004)
Several values for one entry are separate records, joined by “and”; a condition that tells them apart may be missing. Identical values can stand only once. Inconclusive results and toxic doses are left out. How the source made its calls: active means survival T/C of 150% or more; inactive means T/C below 125% in these data. Numbered stars: 1 amine (or outer) side, 2 acyl side, 3 side chain; on linkers, the order of the positions; unused ones are H or OH. Peptide text beside a SMILES is read from it. ξ: configuration not given here. ξγGlu = O=C(O)C(CCC(=O)[*:2])N[*:1]

System: P388 leukemia ip, CD2F1 mice, survival T/C
Assay: NCI In Vivo Anticancer Drug Screen. Data for tumor model P388 Leukemia (intraperitoneal) in CD2F1 (CDF1) mice
Conditions: endpoint: median survival time, higher = longer survival
Summary of the method: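 Mice carrying the transplanted tumor received test compound or vehicle. Survival was recorded in each group, and the value is the treated-group measurement divided by that of the vehicle-treated control group.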

[1] = dose: 60.0 mg/kg/injection, schedule: Q01DX005 (ip), vehicle: Klucel (hydroxypropylcellulose) (HPC)
[2] = dose: 120.0 mg/kg/injection, schedule: Q01DX005 (ip), vehicle: Klucel (hydroxypropylcellulose) (HPC)
[3] = dose: 240.0 mg/kg/injection, schedule: Q01DX005 (ip), vehicle: Klucel (hydroxypropylcellulose) (HPC)
[4] = dose: 100.0 mg/kg/injection, schedule: Q04DX003 (ip), vehicle: saline
[5] = dose: 200.0 mg/kg/injection, schedule: Q04DX003 (ip), vehicle: saline
[6] = dose: 50.0 mg/kg/injection, schedule: Q01DX009 (ip), vehicle: Klucel (hydroxypropylcellulose) (HPC)
[7] = dose: 100.0 mg/kg/injection, schedule: Q01DX009 (ip), vehicle: Klucel (hydroxypropylcellulose) (HPC)
[8] = dose: 200.0 mg/kg/injection, schedule: Q01DX009 (ip), vehicle: Klucel (hydroxypropylcellulose) (HPC)
[9] = dose: 50.0 mg/kg/injection, schedule: Q01DX009 (ip), vehicle: saline with Tween-80
[10] = dose: 100.0 mg/kg/injection, schedule: Q01DX009 (ip), vehicle: saline with Tween-80
[11] = dose: 200.0 mg/kg/injection, schedule: Q01DX009 (ip), vehicle: saline with Tween-80
[12] = dose: 50.0 mg/kg/injection, schedule: Q01DX005 (ip), vehicle: saline with Tween-80
[13] = dose: 100.0 mg/kg/injection, schedule: Q01DX005 (ip), vehicle: saline with Tween-80
[14] = dose: 50.0 mg/kg/injection, schedule: Q01DX005 (ip), vehicle: saline
[15] = dose: 100.0 mg/kg/injection, schedule: Q01DX005 (ip), vehicle: saline
[16] = dose: 200.0 mg/kg/injection, schedule: Q01DX005 (ip), vehicle: saline
[17] = dose: 50.0 mg/kg/injection, schedule: Q01DX005 (ip), vehicle: Klucel (hydroxypropylcellulose) (HPC)
[18] = dose: 100.0 mg/kg/injection, schedule: Q01DX005 (ip), vehicle: Klucel (hydroxypropylcellulose) (HPC)
[19] = dose: 200.0 mg/kg/injection, schedule: Q01DX005 (ip), vehicle: Klucel (hydroxypropylcellulose) (HPC)
[20] = dose: 60.0 mg/kg/injection, schedule: Q01DX005 (ip), vehicle: saline with Tween-80
[21] = dose: 120.0 mg/kg/injection, schedule: Q01DX005 (ip), vehicle: saline with Tween-80
[22] = dose: 240.0 mg/kg/injection, schedule: Q01DX005 (ip), vehicle: saline with Tween-80

Measured: T/C

CCCCCC(C(=O)OCC)/C(C)=N\NC(N)=S (stereo not drawn)
inactive: [1] 100 % of control | [2] 98 % of control | [3] 100 % of control

COc1cccc(C2SCC(=O)N2c2nncs2)c1OC (stereo not drawn)
inactive: [1] 106 % of control | [2] 95 % of control | [3] 98 % of control

O=C(NO)c1ccncc1
inactive: [4] 100 % of control | [5] 109 % of control | dose: 400.0 mg/kg/injection, schedule: Q04DX003 (ip), vehicle: saline 109 % of control

CCCCCCCC(=O)Nc1nnc(SCCCCCCCCCCSc2nnc(NC(=O)CCCCCCC)s2)s1
inactive: dose: 50.0 mg/kg/injection, schedule: Q01DX005 (ip), vehicle: Klucel + Tween-80 90 % of control | dose: 100.0 mg/kg/injection, schedule: Q01DX005 (ip), vehicle: Klucel + Tween-80 87 % of control | dose: 200.0 mg/kg/injection, schedule: Q01DX005 (ip), vehicle: Klucel + Tween-80 90 % of control

CC(=O)Nc1ccc(S(=O)(=O)NCCSSCCNS(=O)(=O)c2ccc(NC(C)=O)cc2)cc1
inactive: [6] 102 % of control | [7] 94 % of control | [8] 91 % of control

COc1ccc2cc1Oc1ccc(cc1)CC1c3cc(OC)c(cc3CCN1C)Oc1c(O)c(OC)cc3c1C(C2)N(C)CC3 (stereo not drawn)
inactive: dose: 3.88 mg/kg/injection, schedule: Q01DX005 (ip), vehicle: Klucel (hydroxypropylcellulose) (HPC) 103 % of control | dose: 7.75 mg/kg/injection, schedule: Q01DX005 (ip), vehicle: Klucel (hydroxypropylcellulose) (HPC) 95 % of control | dose: 15.5 mg/kg/injection, schedule: Q01DX005 (ip), vehicle: Klucel (hydroxypropylcellulose) (HPC) 95 % of control | dose: 31.0 mg/kg/injection, schedule: Q01DX005 (ip), vehicle: Klucel (hydroxypropylcellulose) (HPC) 95 % of control

CC(=O)NC(CC(C)C)C(=O)O (stereo not drawn)
inactive: dose: 25.0 mg/kg/injection, schedule: Q01DX009 (ip), vehicle: saline with Tween-80 95 % of control | [9] 86 % of control and 94 % of control | [7] 104 % of control | [10] 100 % of control and 105 % of control | [8] 114 % of control | [11] 118 % of control | dose: 400.0 mg/kg/injection, schedule: Q01DX009 (ip), vehicle: Klucel (hydroxypropylcellulose) (HPC) 100 % of control | dose: 400.0 mg/kg/injection, schedule: Q01DX009 (ip), vehicle: saline with Tween-80 105 % of control

O=C(Cn1ccnc1)Nc1ccc(Cl)cc1C(=O)c1ccccc1
inactive: [12] 95 % of control | [13] 92 % of control

Cc1cc(F)nc(F)n1
inactive: [14] 98 % of control | [15] 98 % of control

NC(N)=NN=c1/c(=N\N=C(N)N)c2ccccc2/c1=N/N=C(N)N
inactive: dose: 25.0 mg/kg/injection, schedule: Q01DX001 (ip), vehicle: saline 99 % of control

CCCCN(CCCC)C(=O)/C(O)=C(\O)C(=O)N(CCCC)CCCC
inactive: dose: 25.0 mg/kg/injection, schedule: Q01DX005 (ip), vehicle: saline 90 % of control | [14] 96 % of control | [15] 92 % of control | [16] 113 % of control

O=C(OCCS(=O)(=O)CCOC(=O)ON1C(=O)CCC1=O)ON1C(=O)CCC1=O
inactive: [17] 109 % of control | [18] 109 % of control | [19] 115 % of control

CC1CC2Oc3ccc(Cl)cc3C(=O)N2O1 (stereo not drawn)
inactive: dose: 7.5 mg/kg/injection, schedule: Q01DX009 (ip), vehicle: saline 115 % of control | dose: 15.0 mg/kg/injection, schedule: Q01DX009 (ip), vehicle: saline 113 % of control | dose: 30.0 mg/kg/injection, schedule: Q01DX009 (ip), vehicle: saline 104 % of control

NC(CCC(=O)NCC(=O)NCC(=O)O)C(=O)O (stereo not drawn) (ξγGlu-Gly-Gly-OH)
inactive: [14] 100 % of control | [15] 97 % of control | [16] 102 % of control

CCN(CCCl)c1ccccc1
inactive: dose: 3.12 mg/kg/injection, schedule: Q01DX009 (ip), vehicle: saline 105 % of control | dose: 6.25 mg/kg/injection, schedule: Q01DX009 (ip), vehicle: saline 106 % of control | dose: 12.5 mg/kg/injection, schedule: Q01DX009 (ip), vehicle: saline 116 % of control | dose: 25.0 mg/kg/injection, schedule: Q01DX009 (ip), vehicle: saline 106 % of control and 115 % of control

O=C(NC(Cc1ccc(Br)cc1)C(=O)O)c1cccc(Br)c1 (stereo not drawn)
inactive: [17] 91 % of control | [18] 102 % of control | [19] 104 % of control

N#CC(C#N)=C(c1ccccc1)c1ccccc1
inactive: [6] 95 % of control | [7] 110 % of control | [8] 100 % of control

CCOC(=O)CCCCCCN(/C=C(\C)CN1c2c(nc(N)[nH]c2=O)NCC1CNc1ccc(C(=O)NC(CCC(=O)O)C(=O)O)cc1)C(C)=O (stereo not drawn)
inactive: dose: 50.0 mg/kg/injection, schedule: Q04DX003 (ip), vehicle: saline 97 % of control | [4] 99 % of control | [5] 98 % of control

CCCCCCC(=O)/C=C/c1c(OC)cc(OC)cc1OC
inactive: [9] 101 % of control | [10] 101 % of control | [11] 97 % of control

CC(=O)Nc1ccc(S(=O)(=O)Nc2cnccn2)cc1
inactive: dose: 100.0 mg/kg/injection, schedule: Q01DX001 (ip), vehicle: saline with Tween-80 93 % of control

CC(=O)Oc1cc2c(cc1C(NC(N)=O)c1ccc3c(c1)OCO3)OCO2 (stereo not drawn)
inactive: [1] 100 % of control | [2] 93 % of control | [3] 92 % of control

C#CC(C)C(C(C)=O)C(C)=O.[C-]#[O+].[C-]#[O+].[C-]#[O+].[C-]#[O+].[C-]#[O+].[C-]#[O+].[Co].[Co] (stereo not drawn)
inactive: dose: 3.12 mg/kg/injection, schedule: Q01DX005 (ip), vehicle: Klucel (hydroxypropylcellulose) (HPC) 104 % of control | dose: 6.25 mg/kg/injection, schedule: Q01DX005 (ip), vehicle: Klucel (hydroxypropylcellulose) (HPC) 94 % of control | dose: 12.5 mg/kg/injection, schedule: Q01DX005 (ip), vehicle: Klucel (hydroxypropylcellulose) (HPC) 111 % of control

CC(=O)N1OCCc2ccccc21
inactive: [20] 100 % of control | [21] 98 % of control | [22] 98 % of control

Nc1cc2c(c[n+](CCCBr)c3ccccc23)c2ccccc12
inactive: dose: 1.56 mg/kg/injection, schedule: Q04DX003 (ip), vehicle: other 118 % of control | dose: 3.13 mg/kg/injection, schedule: Q04DX003 (ip), vehicle: other 118 % of control | dose: 6.25 mg/kg/injection, schedule: Q04DX003 (ip), vehicle: other 122 % of control

CC1OC(Oc2ccc3c(=O)c(-c4ccc(O)cc4)coc3c2)C(O)C(O)C1O (stereo not drawn)
inactive: [20] 103 % of control | [21] 103 % of control | [22] 103 % of control

C1=Cc2ccccc2C(=C2CCOCC2)c2ccccc21
inactive: dose: 50.0 mg/kg/injection, schedule: Q01DX009 (ip), vehicle: saline 113 % of control | dose: 100.0 mg/kg/injection, schedule: Q01DX009 (ip), vehicle: saline 100 % of control | dose: 200.0 mg/kg/injection, schedule: Q01DX009 (ip), vehicle: saline 94 % of control

O=C1NC2CSC(CCCCC(=O)ON3C(=O)CCC3=O)C2N1 (stereo not drawn)
inactive: [12] 104 % of control | [13] 116 % of control | dose: 200.0 mg/kg/injection, schedule: Q01DX005 (ip), vehicle: saline with Tween-80 116 % of control

CCOC(=O)C1=C(c2ccccc2)C2OC1C(COC(=O)NC)=C2COC(=O)NC (stereo not drawn)
inactive: dose: 12.5 mg/kg/injection, schedule: Q01DX009 (ip), vehicle: distilled water + Tween-80 96 % of control | dose: 25.0 mg/kg/injection, schedule: Q01DX009 (ip), vehicle: distilled water + Tween-80 93 % of control | dose: 50.0 mg/kg/injection, schedule: Q01DX009 (ip), vehicle: distilled water + Tween-80 87 % of control | dose: 100.0 mg/kg/injection, schedule: Q01DX009 (ip), vehicle: distilled water + Tween-80 87 % of control | dose: 200.0 mg/kg/injection, schedule: Q01DX009 (ip), vehicle: distilled water + Tween-80 99 % of control
